“And” between values parts separate entries of the source, which are not always exact repeats. Equal entries are not always repeated. Where two headings read alike, the source gives them in different places.
Key:
Salmonella enteritidis [1] = test: micro broth dilution, coniferaldehyde and vanillin with and without DHAA (Example 9); type: cell-based; settings: Vanilin/Coniferylaldehyde 0/5 mM; DHAA 20 mM if combined
Method: All stock solutions were stored at 5° C. In vitro bioassay: The MIC of the different treatments was determined using a micro broth dilution method. […] Control wells were prepared by adding 100 μL acetone. […] […] The plates were placed in a laminar flow chamber for 8 hours to evaporate the solvent. […] Where possible, colonies were counted to obtain more precise quantitative data.

Salmonella enterica [2] = test: perlite assay, survival of Salmonella enterica: vanillin with dehydro-abietic acid (Example 1); type: cell-based
Method: A 20 mmol solution of dehydroabietic acid in alcohol and water was also prepared.

[3] = solubility in water, concluded from water extraction of heated pine shavings; type: physicochemical
Salmonella enterica [4] = type: cell-based
Method: 20 mmol solutions of ursolic acid, oleonic acid and betulin in alcohol were also prepared.

Salmonella enterica [5] = test system: Salmonella enterica
S. enteritidis = test: inhibition zone experiment on TLC plate; type: cell-based; settings: FIG. 3
Method: Two test solutions were prepared, i.e.: (i) vanillin in combination with DHAA, and (ii) stilbene in combination with dehydro-abietic acid (DHAA). The activity of the solutions were then tested on several different micro-organisms, as follows.
A droplet of a test solution was placed on a TLC plate. The solvent was allowed to evaporate and a suspension of test micro-organisms (Gram-positive and Gram-negative bacteria) in broth was applied evenly onto the TLC plate. The plate was incubated overnight. To visualise microbial activity, the TLC plate was sprayed with tetrazolium salt solution. Microbial activity was indicated by a red-pink colour.

Salmonella enteritidis [6] = test: perlite bio-assay with pure DHAA and vanillin (Example 7); type: cell-based; settings: DHAA (10 μl of 20 mM) if +DA
Method: Also, one 20 mM stock solution of DHAA was made in acetone. Bioassay test: The test was carried out using 1.5 ml Eppendorf tubes containing 10 mg of fine perlite. Ten μl of each concentration of vanillin was dispensed into four Eppendorf tubes to obtain four replicates of each concentration. Two of these received 10 μl of DHAA. The tubes were left in laminar flow chamber for 3 h to allow evaporation of the acetone. […] To keep the perlite moist during incubation, 10 μl of sterile R.O water was dispensed into each tube. As controls, two tubes received DHAA only and two tubes received R.O water only. The tubes were incubated overnight, and bacterial survival was quantified by plating the content of each tube onto nutrient agar for the bacterial count.

S. cerevisiae = test: inhibition zone experiment on TLC plate; type: cell-based; settings: FIG. 8, S. cerevisiae; on its own or in combination with DHAA
Method: Two test solutions were prepared, i.e.: (i) vanillin in combination with DHAA, and (ii) stilbene in combination with dehydro-abietic acid (DHAA). The activity of the solutions were then tested on several different micro-organisms, as follows. A droplet of a test solution was placed on a TLC plate. The solvent was allowed to evaporate and a suspension of test micro-organisms (Gram-positive and Gram-negative bacteria) in broth was applied evenly onto the TLC plate. The plate was incubated overnight. To visualise microbial activity, the TLC plate was sprayed with tetrazolium salt solution. Microbial activity was indicated by a red-pink colour. To show the efficacy of the solutions against filamentous fungi, the inoculated TLC plates were incubated until the fungus started to sporulate. To show efficacy against yeast, after incubation, the TLC plates were pressed against a nutrient agar plate. The plate was incubated until yeast colonies were clearly visible.

COc1cc(/C=C/C=O)ccc1O [Coniferyl aldehyde, coniferaldehyde]
Colony counts (Salmonella enteritidis [1]): TMTC

CC(C)c1ccc2c(c1)CC[C@H]1[C@](C)(C(=O)O)CCC[C@]21C [Dehydro-Abietic acid, dehydroabietic acid]
Average no of cfu recovered per droplet (Salmonella enterica [2]; DHAA 20 mmol alone, vanillin 0): >100 cfu | solubility in water [3]: poorly-soluble in water

COc1cc(C=O)ccc1O [Vanillin, 4-hydroxy-3-methoxybenzaldehyde]
Average no. of cfu recovered per droplet (Salmonella enterica [4]): >100 cfu | Average no. of cfu recovered per droplet (Salmonella enterica [5]; vanillin 20 mmol, citric acid 20 mmol if combined): >100 cfu | Average no of cfu recovered per droplet (Salmonella enterica [2]; vanillin 0.001 mmol, DHAA 20 mmol if combined): >100 cfu | Average no of cfu recovered per droplet (Salmonella enterica [2]; vanillin 0.019 mmol, DHAA 20 mmol if combined): >100 cfu | Average no of cfu recovered per droplet (Salmonella enterica [2]; vanillin 0.039 mmol, DHAA 20 mmol if combined): >100 cfu | Average no of cfu recovered per droplet (Salmonella enterica [2]; vanillin 0.078 mmol, DHAA 20 mmol if combined): >100 cfu | Average no of cfu recovered per droplet (Salmonella enterica [2]; vanillin 0.156 mmol, DHAA 20 mmol if combined): >100 cfu | Average no of cfu recovered per droplet (Salmonella enterica [2]; vanillin 0.313 mmol, DHAA 20 mmol if combined): >100 cfu | Average no of cfu recovered per droplet (Salmonella enterica [2]; vanillin 0.625 mmol, DHAA 20 mmol if combined): >100 cfu | Average no of cfu recovered per droplet (Salmonella enterica [2]; vanillin 1.25 mmol, DHAA 20 mmol if combined): >100 cfu | Average no of cfu recovered per droplet (Salmonella enterica [2]; vanillin 2.5 mmol, DHAA 20 mmol if combined): >100 cfu | Average no of cfu recovered per droplet (Salmonella enterica [2]; vanillin 5 mmol, DHAA 20 mmol if combined): >100 cfu | Average no of cfu recovered per droplet (Salmonella enterica [2]; vanillin 10 mmol, DHAA 20 mmol if combined): >100 cfu | Average no of cfu recovered per droplet (Salmonella enterica [2]; vanillin 20 mmol, DHAA 20 mmol if combined): >100 cfu | inhibitory effect on Salmonella (Salmonella enterica [2]; vanillin on its own, 20 mmol or less): no inhibitory effect | inhibition of S. enteritidis on TLC plate (S. enteritidis): ineffective | Salmonella enteritidis count (Salmonella enteritidis [6]; vanillin 0.313 mM): TMTC | Salmonella enteritidis count (Salmonella enteritidis [6]; vanillin 2.5 mM): TMTC | Salmonella enteritidis count (Salmonella enteritidis [6]; vanillin 5 mM): TMTC | Salmonella enteritidis count (Salmonella enteritidis [6]; vanillin 10 mM): 394 CFU/tube and 500 CFU/tube | concentration of vanillin at which it is effective (S. cerevisiae): 5 mM

C=C(C)[C@@H]1CC[C@]2(CO)CC[C@]3(C)[C@H](CC[C@@H]4[C@@]5(C)CC[C@H](O)C(C)(C)[C@@H]5CC[C@]43C)[C@@H]12 [betulin]
Average no. of cfu recovered per droplet (Salmonella enterica [4]; triterpenoid 20 mmol alone, vanillin 0): >100 cfu

O=C(O)CC(O)(CC(=O)O)C(=O)O [citric acid]
Average no. of cfu recovered per droplet (Salmonella enterica [5]; citric acid 20 mmol alone, vanillin 0): >100 cfu

CC1(C)CC[C@]2(C(=O)O)CC[C@]3(C)C(=CC[C@@H]4[C@@]5(C)CC[C@H](O)C(C)(C)[C@@H]5CC[C@]43C)[C@@H]2C1 [oleanic acid, oleanolic acid]
Average no. of cfu recovered per droplet (Salmonella enterica [4]): >100 cfu

C[C@H]1[C@H](C)CC[C@]2(C(=O)O)CC[C@]3(C)C(=CC[C@@H]4[C@@]5(C)CC[C@H](O)C(C)(C)[C@@H]5CC[C@]43C)[C@H]12 [ursolic acid]
Average no. of cfu recovered per droplet (Salmonella enterica [4]): >100 cfu

From patent publication US9743675B2, “Antimicrobial composition” (UNIVERSITY OF SURREY, priority 2009, dated 2017)
